# According to patent US20090326003A1, “PYRAZOLO (3, 4-B) PYRIDINE DERIVATIVES AS PDE4 INHIBITORS” (priority 2006, published 2009):
# Assays:
# [1] = system: atopic dermatitis patients; conditions: 0.5% ointment, twice daily topical application; cited from earlier work
# COPD patients = conditions: cited from earlier work
# [2] = system: humans with histories of allergic rhinitis; conditions: orally 500 ug once daily for 9 days; intranasal allergen provocation (pollen extracts); cited from earlier work
# [3] = system: atopic dermatitis patients; conditions: 0.15% cream versus vehicle and hydrocortisone 17-butyrate (0.1%) cream; cited from earlier work
# [4] = biological target: T1, PDE4B (human recombinant) (Homo sapiens, UniProt Q07343); assay: PDE4B inhibition, fluorescence polarisation (FP) and/or SPA assay; type: biochemical; conditions: n=1 or average of 2 or more readings, accuracy ±about 0.5 log unit, read-out: PDE4B pIC50 (generally in FP assay) (±about 0.5) (converted)
# T1 construct: made in house
# Description: Human recombinant PDE4B, in particular the 2B splice variant thereof (HSPDE4B2B), is disclosed in WO 94/20079 and also M. M. McLaughlin et al., “A low Km, rolipram-sensitive, cAMP-specific phosphodiesterase from human brain: cloning and expression of cDNA, biochemical characterisation of recombinant protein, and tissue distribution of mRNA”, J. Biol. Chem., 1993, 268, 6470-6476. For example, in Example 1 of WO 94/20079, human recombinant PDE4B is described as being expressed in the PDE-deficient yeast Saccharomyces cerevisiae strain GL62, e.g. after induction by addition of 150 uM CuSO4, and 100,000×g supernatant fractions of yeast cell lysates are described for use in the harvesting of PDE4B enzyme.
# The ability of compounds to inhibit catalytic activity at PDE4B or 4D (human recombinant), PDE3 (from bovine aorta), PDE5 (human recombinant) or PDE6 (from bovine retina) can optionally be determined by Scintillation Proximity Assay (SPA) in a 96-well format.
# Test compounds (as a solution in DMSO, preferably about 2 microliter (ul) volume of DMSO solution) are preincubated at ambient temperature (room temperature, e.g. 19-23° C.) in Wallac Isoplates (code 1450-514) with PDE enzyme in 50 mM Tris-HCl buffer pH 7.5, 8.3 mM MgCl2, 1.7 mM EGTA, 0.05% (w/v) bovine serum albumin for 10-30 minutes (usually 30 minutes). The enzyme concentration is adjusted so that no more than 20% hydrolysis of the substrate defined below occurs in control wells without compound, during the incubation. For the PDE3, PDE4B and PDE4D assays, [5′,8-3H]Adenosine 3′,5′-cyclic phosphate (Amersham Pharmacia Biotech, code TRK.559; or Amersham Biosciences UK Ltd, Pollards Wood, Chalfont St Giles, Buckinghamshire HP8 4SP, UK) is added to give 0.05 uCi per well and about 10 nM final concentration. For the PDE5 and PDE6 assays, [8-^3H]Guanosine 3′,5′-cyclic phosphate (Amersham Pharmacia Biotech, code TRK.392) is added to give 0.05 uCi per well and about 36 nM final concentration. Plates containing assay mixture, preferably approx. 100 ul volume of assay mixture, are mixed on an orbital shaker for 5 minutes and incubated at ambient temperature for 1 hour. Phosphodiesterase SPA beads (Amersham Pharmacia Biotech, code RPNQ 0150) are added (about 1 mg per well) to terminate the assay. Plates are sealed and shaken and allowed to stand at ambient temperature for 35 minutes to 1 hour (preferably 35 minutes) to allow the beads to settle. Bound radioactive product is measured using a WALLAC TRILUX 1450 Microbeta scintillation counter. For inhibition curves, 10 concentrations (e.g. 1.5 nM-30 uM) of each compound are assayed. Curves are analysed using ActivityBase and XLfit (ID Business Solutions Limited, 2 Ocean Court, Surrey Research Park, Guildford, Surrey GU2 7QB, United Kingdom) Results are expressed as pIC50 values.
# The ability of compounds to inhibit catalytic activity at PDE4B (human recombinant) or PDE4D (human recombinant) can optionally be determined by IMAP Fluorescence Polarisation (FP) assay (IMAP Explorer kit, available from Molecular Devices Corporation, Sunnydale, Calif., USA; Molecular Devices code: R8062) in 384-well format.
# The IMAP FP assay is able to measure PDE activity in an homogenous, non-radioactive assay format. The FP assay uses the ability of immobilised trivalent metal cations, coated onto nanoparticles (tiny beads), to bind the phosphate group of FI-AMP that is produced on the hydrolysis of fluorescein-labelled (FI) cyclic adenosine mono-phosphate (FI-cAMP) to the non-cyclic FI-AMP form. […] Binding of FI-AMP product to the beads (coated with the immobilised trivalent cations) slows the rotation of the bound FI-AMP and leads to an increase in the fluorescence polarisation ratio of parallel to perpendicular light. Inhibition of the PDE reduces/inhibits this signal increase. […]
# [5] = system: TNF-α production in human PBMC (peripheral blood mononuclear cells); assay: Inhibition of TNF-alpha production in human PBMC (MSD technology); type: cell-based; conditions: inhibition of LPS-stimulated TNF-α production in human PBMC; measured and/or mean; read-out: PBMC pIC50 (MSD assay) (converted)
# Description: A 96-well plate (96 MicroWell™ Plates Nunclon™Δ-High Flange Design, Fisher Scientific UK, Bishop Meadow Road, Loughborough LE 11 5 RG, Leicestershire, UK) is prepared by initially adding to column 1 ca. 10 mM of test compound dissolved in DMSO. […] The compound is further diluted with DMSO into columns 2 to 9 by 8 successive 3fold dilutions using the Biomek® FX Laboratory Automation Workstation (Beckman Coulter, Inc., 4300 N. Harbor Boulevard, P.O. Box 3100, Fullerton, Calif. 92834-3100 USA). Column 10 is used as a DMSO negative control (High Signal, 0% response), whilst column 11, which contains 10 mM of the PDE4 inhibitor roflumilast, is used as a positive control (Low Signal, 100% response). About 1 μl (about 1 ul) of compound is transferred to the compound plate using the Biomek® FX.
# PBMC cells (peripheral blood mononuclear cells) are prepared from heparinised human blood (using 1% v/v Heparin Sodium 10001 U/ml Endotoxin Free, Leo Laboratories Ltd., Cashel Road, Dublin 12. Ireland, Cat No: PL0043/0149) from normal volunteers using the Accuspin™ System-Histopaque®-1077 essentially (Sigma-Aldrich Company Ltd., The Old Brickyard New Rd, Gillingham Dorset SP8 4XT). About 20 ml of blood is overlaid onto 15 ml Histopaque® in Accuspin™ tubes. The tube is then centrifuged at about 800 g for ca. 20 minutes. The cells are collected from the interface, washed by centrifugation (ca. 1300 g, ca. 10 minutes) and resuspended in RPMI1640 medium (Low endotoxin RPMI1640 medium, Cat No: 31870-025, Invitrogen Corporation Invitrogen Ltd, 3 Fountain Drive, Inchinnan Business Park, Paisley PA4 9RF, UK) containing 10% foetal calf serum, 1% L-glutamine (Invitrogen Corporation, Cat No: 25030024) and 1% penicillin/streptomycin (Invitrogen Corporation, Cat No: 15140-122). Viable cells are counted by trypan blue staining and diluted to 1×10^6 viable cells/ml. About 50 μl (about 50 ul) of diluted cells and about 75 μl (about 75 ul) of LPS (ca. 1 ng/ml final; Sigma Cat No: L-6386) are added to the compound plate, which is then incubated at 37° C., 5% CO2, for 20 hours.
# The supernatant is removed and the concentrations of TNF-α are determined by electrochemiluminescence assay using the Meso Scale Discovery (MSD) technology (Meso Scale Discovery, 9238 Gaither Road, Gaithersburg, Md. 20877, USA). See the “TNF-α (TNF-alpha) MSD Assay” described below for typical details.
# Using the Biomek FX, 25 μl (25 ul) of MSD Human Serum Cytokine Assay Diluent (Meso Scale Discovery, 9238 Gaither Road, Gaithersburg, Md. 20877) is added to a 96-well High-Bind MSD plate pre-coated with anti-hTNF alpha capture antibody (MA6000) and then incubated for 24 hours at 4° C. to prevent non-specific binding. […]
# For the PBMC assay, about 20 μl (ul) of diluted sulfo-TAG antibody (ca. 1 μg/ml final) is added to each well, and the plates/wells are shaken at room temperature for 2 hours. Finally, about 90 μl (ul) of MSD Read Buffer P (diluted to 2.5 times with distilled water) is added and the plates are read on a MSD Sector 6000.
# Data analysis is performed with ActivityBase/XC50 module (ID Business Solutions Ltd., 2 Occam Court, Surrey Research Park, Guildford, Surrey, GU2 7QB UK). Data are normalized and expressed as % inhibition using the formula 100*((U-C1)/(C2-C1)) where U is the unknown value, C1 is the average of the high signal (0%) control wells (column 10), and C2 is the average of the low signal (100%) control wells (column 11). […]
# T1 sequence (Q07343 1-564 isoform Q07343-2): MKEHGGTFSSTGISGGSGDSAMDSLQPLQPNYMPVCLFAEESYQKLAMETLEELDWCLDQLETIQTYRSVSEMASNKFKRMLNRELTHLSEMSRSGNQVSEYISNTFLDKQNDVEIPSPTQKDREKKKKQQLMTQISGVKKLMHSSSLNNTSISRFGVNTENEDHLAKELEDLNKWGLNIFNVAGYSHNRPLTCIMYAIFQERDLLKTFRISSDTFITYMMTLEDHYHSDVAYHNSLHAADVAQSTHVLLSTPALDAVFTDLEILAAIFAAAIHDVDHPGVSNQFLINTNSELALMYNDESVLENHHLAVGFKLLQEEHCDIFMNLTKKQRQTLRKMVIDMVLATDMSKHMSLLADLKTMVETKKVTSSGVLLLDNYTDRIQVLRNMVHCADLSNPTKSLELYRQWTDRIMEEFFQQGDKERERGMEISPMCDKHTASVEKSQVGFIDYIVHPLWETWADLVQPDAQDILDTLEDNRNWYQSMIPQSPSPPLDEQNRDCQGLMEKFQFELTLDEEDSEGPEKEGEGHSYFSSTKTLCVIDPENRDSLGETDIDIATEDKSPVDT
smiles,measurement,setting,value
"COc1ccc(C2CNC(=O)NC2)cc1O[C@H]1C[C@@H]2CC[C@H]1C2 [CP80,633]",inflammatory parameters in atopic dermatitis patients,[1],reductions of inflammatory parameters
COc1ccc([C@]2(C#N)CC[C@@H](C(=O)O)CC2)cc1OC1CCCC1 [cilomilast],forced expiratory volume in 1 s (FEV1) in COPD patients,COPD patients; 15 mg orally twice daily,appears to improve
same,antiinflammatory effects in COPD patients,COPD patients; COPD patients,appears to have antiinflammatory effects
O=C(Nc1c(Cl)cncc1Cl)c1ccc(OC(F)F)c(OCC2CC2)c1 [roflumilast],FEV1 in COPD patients,"COPD patients; COPD patients, dose not stated",small improvements
same,rhinal airflow during the treatment period (compared to placebo),[2],effective in improving rhinal airflow
Nc1nc2c([nH]1)c(=O)n(CC1CC1)c(=O)n2CC1CC1 [cipamfylline],effectiveness in the treatment of atopic dermatitis patients,[3],"significantly more effective than vehicle, but significantly less effective than hydrocortisone 17-butyrate (0.1%) cream"
"CCn1ncc2c(NC3CCOCC3)c(CNC(=O)c3ccc(-c4ccc(C(=O)NCc5c(C)nc6c(cnn6CC)c5NC5CCOCC5)cc4)cc3)c(C)nc21 [Example 28, N,N′-bis{[1-ethyl-6-methyl-4-(tetrahydro-2H-pyran-4-ylamino)-1H-pyrazolo[3,4-b]pyridin-5-yl]methyl}-4,4′-biphenyldicarboxamide]",IC50,[4],~0.0251 nM
same,IC50,[5],~0.126 nM
